The record followed here is US6768007B2, “Substituted 3′,4′-di-O-camphanoyl-(+)-cis-khellactone analogs, compositions thereof, and methods for using thereof” (Panacos Pharmaceuticals, Inc., priority 2001, dated 2004).

The subject of data set [1] is mock-infected H9 cells. In words: Cytotoxicity in mock-infected (uninfected) H9 cells. It counts as cell-based. The method, then: (§1) The biological evaluation of HIV-1 inhibition was carried out according to established protocols, (Kashiwada, Y., et al., J. Med. Chem. 39:1016-1017 (1996); Hashimoto, F., et al., Bioorg. & Med. Chem. 5:2133-2143 (1997)). The T cell line, H9, was maintained in continuous culture log-phase growth in complete medium (RPMI 1640 with 10% fetal calf serum supplemented with L-glutamine at 5% CO2 and 37° C.). Test samples were first dissolved in dimethyl sulfoxide at a concentration of 10 mg/ml to generate master stocks with dilutions made into tissue culture media to generate working stocks. The following drug concentrations were used routinely for screening: 50, 5, and 0.5 μg/mL. For agents found to be active, additional dilutions were prepared for subsequent testing so that an accurate EC50 value (defined below) could be determined. As the test samples were being prepared, an aliquot of the H9 cell line was infected with HIV-1 (IIIB isolate) while a second aliquot was mock-infected with complete medium. […] An amount of virus equal to approximately 6.25×10^4 TCID50 was added to the first aliquot of 3.5×10^6H9 cells. The second aliquot received tissue culture medium only, and these mock-infected cells were used for toxicity determinations (IC50 defined below). After a 4 h incubation at 37° C. and 5% CO2, both cell populations were washed three times with fresh medium and then added to the appropriate wells of a 96-well plate containing various concentrations of the test drug or tissue culture medium (positive infected control/negative drug control). In addition, AZT was assayed during each experiment as a positive drug control. The plates were incubated at 37° C. and 5% CO2 for 5 days. Cell-free culture supernatants were collected on Day 5 for use in a p24 antigen-capture ELISA assay to determine virus replication. p24 is the core protein of HIV and therefore is an indirect measure of the amount of virus present in the culture supernatants. Toxicity was determined using a viable dye method (XTT) on mock-infected H9 cells that were treated with test sample, AZT or no drug. If a test sample suppressed viral replication and was toxic to less than 50% of the cells, its effects were reported in the following terms: IC50, the concentration of test sample which was toxic to 50% of the mock-infected H9 cells; EC50, the concentration of the test sample which was able to suppress HIV replication by 50%; and Therapeutic Index (TI), the ratio of IC50 to EC50.
(§2) Compounds of the present invention were assayed for anti-HIV activity according to the following assay procedures. The T cell line, H9, and the promonocytic cell line, U937, were maintained separately in continuous culture with complete medium (RPMI 1640 with 10% fetal calf serum) at 5% CO2 and 37° C. The cell lines were used in experiments only when in the logarithmic phase of growth, whereas uninfected peripheral blood mononuclear cells (PBMCs) were first stimulated with PHA (1 μg/mL) for three days. All cell targets were incubated with HIV-1 (IIIB isolate, 1×10^6 TCID50/mL) for one hour at 37° C. and 5% CO2. The cell lines and PBMCs were washed thoroughly to remove unadsorbed virions and resuspended at 4×10^5 cells/mL in complete medium or complete medium with 10% v/v interleukin 2 (IL-2), respectively. […] aliquots were placed into wells of 96-well tissue culture plates containing an equal volume of test compounds (diluted in the appropriate culture medium). The toxicity of each compound was assessed by determining the viability of compound-exposed uninfected cells after five days at 37° C. and 5% CO2. A p24 antigen ELISA assay was used to determine the level of virus released in the medium of the HIV-infected cultures. The p24 antigen assay used a HIV-1 anti-p24 specific monoclonal antibody as the capture antibody coated onto 96-well plates. […]

The subject of data set [2] is HIV-1 (IIIB isolate). In words: Anti-HIV activity in H9 lymphocytes (p24 antigen ELISA). Conditions: H-9 lymphocytes; for Anti-HIV Activity EC50: HIV-1 IIIB, p24 ELISA, day 5, average of at least two experiments; for anti-viral activity (in words): summary of Table 1; for Therapeutic Index (TI = IC50/EC50): ratio of IC50 to EC50. It counts as cell-based. The procedure: as §1, §2
A general note: An ELISA detects its analyte on a solid surface through an enzyme-linked reagent.

In the case of `CC1(C)Oc2ccc3cc(C(Br)Br)c(=O)oc3c2[C@@H](OC(=O)[C@@]23CCC(C)(C(=O)O2)C3(C)C)[C@H]1OC(=O)[C@@]12CCC(C)(C(=O)O1)C2(C)C` (relative stereo) [Compound 2, (3′R,4′R)-3′,4′-Di-O-(S)-(−)-camphanoyl-3-dibromomethyl-(+)-cis-khellactone], the “Cytotoxicity IC50” value in data set [1] was found to be 3.20 µg/mL. Moreover, in data set [2], the “Anti-HIV Activity EC50” value was determined as 0.000119 µg/mL, the “anti-viral activity (in words)” value is “most potent” and the “Therapeutic Index (TI = IC50/EC50)” value is on record as 26,890.

Consider `CC(=O)OCc1c(C)c2ccc3c(c2oc1=O)[C@@H](OC(=O)[C@@]12CC[C@@](C)(C(=O)O1)C2(C)C)[C@@H](OC(=O)[C@@]12CC[C@@](C)(C(=O)O1)C2(C)C)C(C)(C)O3` (relative stereo) [Compound 8, (3′R,4′R)-3′,4′-Di-O-(S)-(−)-camphanoyl-3-acetoxymethyl-4-methyl-(+)-cis-khellactone], for which the “Cytotoxicity IC50” value in data set [1] worked out at 18.80 µg/mL. For the same molecule, in data set [2], the “Anti-HIV Activity EC50” value is 0.00012 µg/mL, the “anti-viral activity (in words)” value is reported as “most potent” and the “Therapeutic Index (TI = IC50/EC50)” value is 157,000.

Consider `Cc1cc(=O)oc2c3c(c(CO)cc12)OC(C)(C)[C@H](OC(=O)[C@@]12CCC(C)(C(=O)O1)C2(C)C)[C@@H]3OC(=O)[C@@]12CCC(C)(C(=O)O1)C2(C)C` (relative stereo) [Compound 12, (3′R,4′R)-3′,4′-Di-O-(S)-(−)-camphanoyl-6-hydroxymethyl-4-methyl-(+)-cis-khellactone], for which the “Cytotoxicity IC50” value in data set [1] came to 19.3 µg/mL. Also, in data set [2], the “Anti-HIV Activity EC50” value is 0.000625 µg/mL, the “anti-viral activity (in words)” value is on record as “most potent” and the “Therapeutic Index (TI = IC50/EC50)” value was 30,900.

With `CC1(C)Oc2ccc3cc(CN)c(=O)oc3c2[C@@H](OC(=O)[C@@]23CC[C@@](C)(C(=O)O2)C3(C)C)[C@H]1OC(=O)[C@@]12CC[C@@](C)(C(=O)O1)C2(C)C` (relative stereo) [Compound 14, (3′R,4′R)-3′,4′-Di-O-(S)-(−)-camphanoyl-3-aminomethyl-(+)-cis-khellactone], the “Cytotoxicity IC50” value in data set [1] came to 32.81 µg/mL. Further, the “Anti-HIV Activity EC50” value in data set [2] came to 0.39 µg/mL.

For the molecule `Cc1cc(=O)oc2c3c(c(CBr)cc12)OC(C)(C)[C@H](OC(=O)[C@@]12CC[C@@](C)(C(=O)O1)C2(C)C)[C@@H]3OC(=O)[C@@]12CC[C@@](C)(C(=O)O1)C2(C)C` (relative stereo) [Compound 6, (3′R,4′R)-3′,4′-Di-O-(S)-(−)-camphanoyl-6-bromomethyl-4-methyl-(+)-cis-khellactone], in data set [1], the “Cytotoxicity IC50” value was 25.00 µg/mL. In data set [2], the “Anti-HIV Activity EC50” value came to 0.025 µg/mL and the “Therapeutic Index (TI = IC50/EC50)” value is 1,000.

As to `CCN(CC)Cc1cc2ccc3c(c2oc1=O)[C@@H](OC(=O)[C@@]12CC[C@@](C)(C(=O)O1)C2(C)C)[C@@H](OC(=O)[C@@]12CC[C@@](C)(C(=O)O1)C2(C)C)C(C)(C)O3` (relative stereo) [Compound 16, (3′R,4′R)-3′,4′-Di-O-(S)-(−)-camphanoyl-3-diethylaminomethyl-(+)-cis-khellactone], the “Cytotoxicity IC50” value in data set [1] came to 43.01 µg/mL. Besides, in data set [2], the “Anti-HIV Activity EC50” value was found to be 0.69 µg/mL and the “Therapeutic Index (TI = IC50/EC50)” value was 62.

As to `Cc1cc(=O)oc2c3c(c(C(Br)Br)cc12)OC(C)(C)[C@H](OC(=O)[C@@]12CCC(C)(C(=O)O1)C2(C)C)[C@@H]3OC(=O)[C@@]12CCC(C)(C(=O)O1)C2(C)C` (relative stereo) [Compound 5, (3′R,4′R)-3′,4′-Di-O-(S)-(−)-camphanoyl-6-dibromomethyl-4-methyl-(+)-cis-khellactone], in data set [1], the “Cytotoxicity IC50” value is 1.76 µg/mL. In data set [2], the “Anti-HIV Activity EC50” value was 0.0215 µg/mL and the “Therapeutic Index (TI = IC50/EC50)” value is on record as 81.8.

With `Cc1c(CBr)c(=O)oc2c3c(ccc12)OC(C)(C)[C@H](OC(=O)[C@@]12CC[C@@](C)(C(=O)O1)C2(C)C)[C@@H]3OC(=O)[C@@]12CC[C@@](C)(C(=O)O1)C2(C)C` (relative stereo) [Compound 3, (3′R,4′R)-3′,4′-Di-O-(S)-(−)-camphanoyl-3-bromomethyl-4-methyl-(+)-cis-khellactone], the “Cytotoxicity IC50” value in data set [1] was 19.4 µg/mL. Besides, in data set [2], the “Anti-HIV Activity EC50” value amounted to 0.000192 µg/mL, the “anti-viral activity (in words)” value is “most potent” and the “Therapeutic Index (TI = IC50/EC50)” value is recorded as 101,000.

As to `CC1(C)Oc2ccc3cc(CBr)c(=O)oc3c2[C@@H](OC(=O)[C@@]23CC[C@@](C)(C(=O)O2)C3(C)C)[C@H]1OC(=O)[C@@]12CC[C@@](C)(C(=O)O1)C2(C)C` (relative stereo) [Compound 1, (3′R,4′R)-3′,4′-Di-O-(S)-(−)-camphanoyl-3-bromomethyl-(+)-cis-khellactone], the “Cytotoxicity IC50” value in data set [1] was 3.38 µg/mL. Besides, in data set [2], the “Anti-HIV Activity EC50” value worked out at 0.0854 µg/mL and the “Therapeutic Index (TI = IC50/EC50)” value came out at 40.

Consider `CC(=O)OCc1cc2ccc3c(c2oc1=O)[C@@H](OC(=O)[C@@]12CCC(C)(C(=O)O1)C2(C)C)[C@@H](OC(=O)[C@@]12CCC(C)(C(=O)O1)C2(C)C)C(C)(C)O3` (relative stereo) [Compound 7, (3′R,4′R)-3′,4′-Di-O-(S)-(−)-camphanoyl-3-acetoxymethyl-(+)-cis-khellactone], for which the “Cytotoxicity IC50” value in data set [1] was 3.34 µg/mL. Further, in data set [2], the “Anti-HIV Activity EC50” value amounted to 0.00103 µg/mL, the “anti-viral activity (in words)” value was “most potent” and the “Therapeutic Index (TI = IC50/EC50)” value is recorded as 3,243.

`Cc1cc(=O)oc2c3c(c(CN)cc12)OC(C)(C)[C@H](OC(=O)[C@@]12CC[C@@](C)(C(=O)O1)C2(C)C)[C@@H]3OC(=O)[C@@]12CC[C@@](C)(C(=O)O1)C2(C)C` (relative stereo) [Compound 15, (3′R,4′R)-3′,4′-di-O-(S)-(−)-camphanoyl-6-aminomethyl-4-methyl-(+)-cis-khellactone]: the “Cytotoxicity IC50” value in data set [1] worked out at 24.1 µg/mL. Besides, in data set [2], the “Anti-HIV Activity EC50” value came to 0.001 µg/mL, the “anti-viral activity (in words)” value is reported as “most potent” and the “Therapeutic Index (TI = IC50/EC50)” value is 24,100.

As to `CC1(C)Oc2ccc3cc(CO)c(=O)oc3c2[C@@H](OC(=O)[C@@]23CCC(C)(C(=O)O2)C3(C)C)[C@H]1OC(=O)[C@@]12CCC(C)(C(=O)O1)C2(C)C` (relative stereo) [Compound 10, (3′R,4′R)-3′,4′-Di-O-(S)-(−)-camphanoyl-3-hydroxymethyl-(+)-cis-khellactone], the “Cytotoxicity IC50” value in data set [1] came out at 35.35 µg/mL. Further, in data set [2], the “Anti-HIV Activity EC50” value turned out to be 0.000188 µg/mL, the “anti-viral activity (in words)” value was “most potent” and the “Therapeutic Index (TI = IC50/EC50)” value is 188,032.

`Cc1cn([C@H]2C[C@H](N=[N+]=[N-])[C@@H](CO)O2)c(=O)[nH]c1=O` [AZT, reference compound]: the “Cytotoxicity IC50” value in data set [1] is 1875 µg/mL. Also, in data set [2], the “Anti-HIV Activity EC50” value was determined as 0.045 µg/mL and the “Therapeutic Index (TI = IC50/EC50)” value is recorded as 41,667.

Regarding `CC1(C)Oc2c(CBr)cc3ccc(=O)oc3c2[C@@H](OC(=O)[C@@]23CCC(C)(C(=O)O2)C3(C)C)[C@H]1OC(=O)[C@@]12CCC(C)(C(=O)O1)C2(C)C` (relative stereo) [Compound 4, (3′R,4′R)-3′,4′-Di-O-(S)-(−)-camphanoyl-6-bromomethyl-(+)-cis-khellactone], in data set [1], the “Cytotoxicity IC50” value amounted to 1.99 µg/mL. Also, in data set [2], the “Anti-HIV Activity EC50” value is 0.0176 µg/mL and the “Therapeutic Index (TI = IC50/EC50)” value was 113.
